Reference: US20080051417A1, “Uses of selective cyclooxygenase-1 inhibitors” (priority 2006, published 2008)
Read-outs that look alike come from different tables or passages of the source.

Tests used:
15-epi-LPXA4 [1] = test: Myocardial 15-epi-LPXA4 levels (ELISA) in treated rats; format: in vivo, Sprague-Dawley rats; settings: for effect on pioglitazone+atorvastatin induction of myocardial 15-epi-LPXA4: pioglitazone+atorvastatin pretreated rats; for effect on myocardial 15-epi-LPXA4 levels: 8 h before harvest
Experimental: (§1) Rats received the following treatment (4 rats in each group): 1) i.v. saline and oral water; 2) i.v. saline and oral aspirin 10 mg/kg; 3) i.v. saline and oral aspirin 50 mg/kg; 4) i.v. LPS and oral water; 5) i.v. LPS and oral aspirin 10 mg/kg; 6) i.v. LPS and oral aspirin 50 mg/kg; 7) i.v. LPS and oral aspirin 200 mg/kg; 8) oral pioglitazone (10 mg/kg/d) and atorvastatin (10 mg/kg/d); 9) oral pioglitazone+atorvastatin and aspirin 10 mg/kg; 10) oral pioglitazone+atorvastatin and aspirin 50 mg/kg; 11) oral pioglitazone+atorvastatin and aspirin 50 mg/kg and i.v. 1400 W, a specific iNOS inhibitor; or 12) oral pioglitazone+atorvastatin, oral water, and i.v. 1400 W, a specific iNOS inhibitor. LPS (10 mg/kg) was dissolved in 1 ml of saline and was administered intravenously 8 hours before harvesting the hearts. Aspirin was dissolved in water and administered by oral gavage 8 hours before harvesting the hearts. Atorvastatin and pioglitazone were administered by oral gavage once daily for 3 days; last dose was administered 16 hours before harvesting the hearts. 1400 W (1 mg/kg) was administered i.v. 15 minutes before harvesting the hearts. All hearts were analyzed for myocardial 15-epi-LPXA4, lipoxin A4, 6-keto-PGF1α (the stable metabolite of PGI2) and PGE2 levels.
(§2) The hearts were rapidly explanted, rinsed in cold PBS (pH 7.4), containing 0.16 mg/ml heparin to remove red blood cells and clots, frozen in liquid nitrogen and stored at −70° C. For 15-epi-LPXA4 and lipoxin A4 determination, myocardial samples from the anterior left ventricular wall were homogenized in ethanol (5 ml/g) and centrifuged at 10,000 g X15 min at 4° C. The supernatant was diluted with water and acidified to pH 3.5 with 1N HCl. The sample was loaded into C-18 Sep-Pak light column (Waters Corporation, Milford, Mass.) and washed with 1 ml of water followed by 1 ml of petroleum ether. The sample was eluted with 2 ml of methyl formate. The methyl formate was evaporated with N2 and the residue was dissolved in extraction buffer. The manufacturer instruction of the ELISA Kits was followed. For myocardial 6-keto-PGF1α and PGE2 levels myocardial samples were homogenized in RIPA lysis buffer with 10% proteinase inhibitor (Sigma) and centrifuged. The supernatants were collected and stored on ice. Measurement of 6-keto-PGF1α (the stable hydrolysis product of PGI2) and PGE2 were performed as instructed by the manufacturer.

lipoxin A4 = test: Myocardial lipoxin A4 levels (ELISA) in treated rats; format: in vivo, Sprague-Dawley rats; settings: for effect on pioglitazone+atorvastatin effect on myocardial lipoxin A4: pioglitazone+atorvastatin pretreated rats
Experimental: as §1, §2

[2] = tested on: 6-keto-PGF1α (the stable metabolite of PGI2); test: Myocardial 6-keto-PGF1α levels (ELISA) in treated rats; format: in vivo, Sprague-Dawley rats; settings: for effect on pioglitazone+atorvastatin increase of myocardial 6-keto-PGF1α: pioglitazone+atorvastatin pretreated rats
Experimental: as §1, §2

PGE2 = test: Myocardial PGE2 levels (ELISA) in treated rats; format: in vivo, Sprague-Dawley rats; settings: for effect on pioglitazone+atorvastatin increase of myocardial PGE2: pioglitazone+atorvastatin pretreated rats; for myocardial PGE2 levels: mean ±SEM
Experimental: as §1, §2

COX2 [3] = settings: intravenous 1400 W, same dose as herein; 3-day pretreatment with atorvastatin 10 mg/kg/d; cited from earlier work
[4] = Infarct size after 30 minute coronary artery occlusion; format: in vivo; settings: aspirin 20 mg/kg i.v. at end of 30 minute coronary artery occlusion; 3-day atorvastatin pretreatment
15-epi-LXA4 = settings: normal human volunteers, cited from earlier work
15-epi-LPXA4 [5] = settings: cited from earlier work; for effect on pioglitazone+atorvastatin effect on myocardial 15-epi-LPXA4 levels: rats treated with pioglitazone+atorvastatin
COX2 [6] = test: Biotin switch assay and COX2 immunoblot of myocardial samples; format: in vivo, rats; settings: compared with the pioglitazone+atorvastatin group
Experimental: S-nitrosylation of COX2 was determined by the biotin switch method as previously described (Atar et al., 2006). Briefly, myocardial samples from the left ventricular wall of rats treated with lipopolysaccharide (group 4) and pioglitazone+atorvastain (group 8) were homogenized in HEN buffer (25 mM HEPES (pH 7.7)-0.1 mM EDTA-0.01 mM necuproine). The supernatant containing membrane fragments and the cytosolic protein were recovered. The samples were incubated for 30 mins at 4° C. with blocking solution containing HEN buffer, 0.1% SDS and 20 mM N-ethylmaleimide (NEM) to block free thiols.
Lysates were centrifuged at 16,000×g for 10 min at 4° C. Cold acetone was added to precipitate the proteins. The pellets were resuspended in HEN buffer with 1% SDS, with 20 mM sodium ascorbate added to decompose the SNO bonds. The resulting free thiols in the sample were reacted with 0.05 mM biotinylating agent, biocytin (MPB) for 30 mins at room temperature. The excess MPB was removed by additional protein precipitation in cold acetone. COX2 was immunoprecipitated with anti-COX2 polyclonal antibody. […] The biotinylated COX2 protein was detected with horseradish peroxidase-linked streptavidin. […] The signal densities of the biotinylated COX2 and total COX2 were quantified by an image-scanning densitometer and the ratio of the densities was calculated for each animal.

In the case of `CC(=N)NCc1cccc(CN)c1` [1400 W], the “effect on pioglitazone+atorvastatin induction of myocardial 15-epi-LPXA4” value (15-epi-LPXA4 [1]; 1400 W 1 mg/kg i.v. alone) is reported as “partially blocked”, the “effect on pioglitazone+atorvastatin effect on myocardial lipoxin A4” value (lipoxin A4; 1400 W alone) is reported as “not attenuated” and the “effect on pioglitazone+atorvastatin increase of myocardial 6-keto-PGF1α” value ([2]; 1400 W) is reported as “attenuated”. The “effect on pioglitazone+atorvastatin increase of myocardial PGE2” value (PGE2; 1400 W) was “completely blocked” and the “effect on augmentation of COX2 activity by atorvastatin” value (COX2 [3]) was “blocked”.

For `CC(=O)Oc1ccccc1C(=O)O` [Aspirin], the “effect on myocardial 15-epi-LPXA4 levels” value (15-epi-LPXA4 [1]; aspirin alone, oral 10 mg/kg) was “no effect”, the “effect on myocardial 15-epi-LPXA4 levels” value (15-epi-LPXA4 [1]; aspirin alone, oral 50 mg/kg) was “no effect” and the “effect on LPS induction of myocardial 15-epi-LPXA4” value (“effect on LPS induction” below) (15-epi-LPXA4 [1]; i.v. LPS + oral aspirin 10 mg/kg, p=0.08 versus LPS alone) was “did not significantly alter”. The “effect on LPS induction” value (15-epi-LPXA4 [1]; i.v. LPS + oral aspirin 50 mg/kg, p<0.001 versus LPS alone) was “augmented”, the “effect on LPS induction” value (15-epi-LPXA4 [1]; i.v. LPS + oral aspirin 200 mg/kg, p<0.001 versus LPS alone) was “augmented” and the “effect on pioglitazone+atorvastatin induction of myocardial 15-epi-LPXA4” value (15-epi-LPXA4 [1]; aspirin 10 mg/kg) was “attenuated”. For the same compound, the “effect on pioglitazone+atorvastatin induction of myocardial 15-epi-LPXA4” value (15-epi-LPXA4 [1]; aspirin 50 mg/kg) was “completely blocked”, the “effect on LPS effect on myocardial lipoxin A4” value (“effect on LPS effect” for short) (lipoxin A4; LPS + aspirin 10 mg/kg) was “did not alter” and the “effect on LPS effect” value (lipoxin A4; LPS + aspirin 50 mg/kg) was “did not alter”. For the same compound, the “effect on LPS effect” value (lipoxin A4; LPS + aspirin 200 mg/kg, p<0.001 versus each of the other groups) was “augmented”, the “effect on myocardial lipoxin A4” value (lipoxin A4; aspirin alone, 10 mg/kg) was “did not affect” and the “effect on myocardial lipoxin A4” value (lipoxin A4; aspirin alone, 50 mg/kg) was “did not affect”. For the same compound, the “effect on pioglitazone+atorvastatin effect on myocardial lipoxin A4” value (lipoxin A4; aspirin alone) was “not attenuated”, the “myocardial 6-keto-PGF1α levels” value ([2]; LPS + aspirin 10 mg/kg, p<0.001 versus LPS alone, mean ±SEM) was 76.70 ± 0.25 pg/mg and the “myocardial 6-keto-PGF1α levels” value ([2]; LPS + aspirin 50 mg/kg, p<0.001 versus LPS alone, mean ±SEM) was 27.66 ± 0.23 pg/mg. The “myocardial 6-keto-PGF1α levels” value ([2]; LPS + aspirin 200 mg/kg, p<0.001 versus LPS alone, mean ±SEM) was 25.39 ± 0.22 pg/mg, the “myocardial 6-keto-PGF1α levels” value ([2]; aspirin alone 10 mg/kg, p=0.48 versus control) was 22.35 pg/mg and the “myocardial 6-keto-PGF1α levels” value ([2]; aspirin alone 50 mg/kg, p=0.001 versus control, mean ±SEM) was 20.97 ± 0.51 pg/mg. The “effect on pioglitazone+atorvastatin increase of myocardial 6-keto-PGF1α” value ([2]; aspirin 10 mg/kg) was “attenuated”, the “effect on pioglitazone+atorvastatin increase of myocardial 6-keto-PGF1α” value ([2]; aspirin 50 mg/kg) was “attenuated” and the “myocardial PGE2 levels” value (PGE2; LPS + aspirin 10 mg/kg, p<0.001 versus LPS alone) was 48.70 ± 3.02 pg/mg. For the same compound, the “myocardial PGE2 levels” value (PGE2; LPS + aspirin 50 mg/kg, p<0.001 versus LPS alone) was 41.68 ± 0.24 pg/mg, the “myocardial PGE2 levels” value (PGE2; LPS + aspirin 200 mg/kg, p<0.001 versus LPS alone) was 33.72 ± 0.46 pg/mg and the “myocardial PGE2 levels” value (PGE2; aspirin alone 10 mg/kg, not significant versus control) was 34.48 ± 0.21 pg/mg. The “myocardial PGE2 levels” value (PGE2; aspirin alone 50 mg/kg, not significant versus control) was 33.68 ± 0.24 pg/mg, the “effect on pioglitazone+atorvastatin increase of myocardial PGE2” value (PGE2; aspirin 10 mg/kg) was “attenuated” and the “effect on pioglitazone+atorvastatin increase of myocardial PGE2” value (PGE2; aspirin 50 mg/kg) was “completely blocked”. For the same compound, the “effect on infarct size limiting effect of atorvastatin” value [4] was “completely abrogated”, the “effect on 15-epi-LXA4” value (15-epi-LXA4; 650 mg/d) was “did not increase” and the “blood levels of 15ELX at 81 mg/d compared with 325 mg/d” value (15-epi-LXA4) was “greater”.

In the case of `CC(C)c1c(C(=O)Nc2ccccc2)c(-c2ccccc2)c(-c2ccc(F)cc2)n1CC[C@@H](O)C[C@@H](O)CC(=O)O` [atorvastatin], the “effect on myocardial 15-epi-LPXA4 levels” value (15-epi-LPXA4 [5]; 3 days oral 5 and 10 mg/kg/d, but not 2 mg/kg/d, each drug alone) is given as “increased”.

For `Cc1onc(-c2ccccc2)c1-c1ccc(S(N)(=O)=O)cc1` [valdecoxib], the “effect on pioglitazone+atorvastatin effect on myocardial 15-epi-LPXA4 levels” value (15-epi-LPXA4 [5]) is listed as “blocked”.

In the case of `CC(c1cc2ccccc2s1)N(O)C(N)=O` (stereo not shown) [zileuton], the “effect on pioglitazone+atorvastatin effect on myocardial 15-epi-LPXA4 levels” value (15-epi-LPXA4 [5]) is given as “blocked”.

With lipopolysaccharide [LPS] the “effect on myocardial 15-epi-LPXA4 levels” value (15-epi-LPXA4 [1]; LPS 10 mg/kg i.v. alone) was “increased”, the “effect on myocardial lipoxin A4 levels” value (lipoxin A4; LPS alone) was “small increase” and the “myocardial 6-keto-PGF1α levels” value ([2]; LPS alone, p<0.001 versus control, mean ±SEM) was 80.56 ± 0.21 pg/mg. For the same compound, the “myocardial PGE2 levels” value (PGE2; LPS alone, p<0.001 versus control) was 70.31±0.26 and the “total COX2 immunoblot signal intensity” value (COX2 [6]) was “stronger”.
